In patent US6677298B2, “Regulators of PPARδ (β) and their use in the treatment of obesity and insulin resistance” (Bristol-Myers Squibb Company, priority 2000, dated 2004):
“Also recorded” adds a separate entry of the source.

Columns and labels:
PPARδ(β) LBD = molecular target: T1, PPARδ(β) LBD (Homo sapiens, UniProt Q03181); assay: In vitro PPARδ(β) LBD ligand binding assay (SPA, 3H-labeled ligand displacement); conditions: 50 nM 3H-labeled ligand, His-tagged LBD bacterial lysate, SPA beads, 1 hour room temperature; read-out: IC50, half maximal inhibition/displacement of 3H labeled PPARδ(β) ligand binding to PPARδ(β) LBD
T1 construct: His-tagged PPARδ(β) LBD (amino acid 139-441, Schmidt et al); made in house; host or cells: E. coli (crude lysate supernatant used)
T1 sequence (Q03181 139-441): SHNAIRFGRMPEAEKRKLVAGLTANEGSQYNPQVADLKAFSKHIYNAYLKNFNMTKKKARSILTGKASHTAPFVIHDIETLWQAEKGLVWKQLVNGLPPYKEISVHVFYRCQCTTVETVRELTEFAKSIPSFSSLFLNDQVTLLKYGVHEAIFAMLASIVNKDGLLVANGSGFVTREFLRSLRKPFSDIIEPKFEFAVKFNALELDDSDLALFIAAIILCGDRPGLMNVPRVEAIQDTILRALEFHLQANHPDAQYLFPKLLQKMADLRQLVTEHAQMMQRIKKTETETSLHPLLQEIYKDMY
Description: FIG. 3: Illustrates results from a PPARδ(β) ligand binding assay.
This invention also provides methods for screening and identification of compounds that bind to and/or regulate PPARδ(β). The PPARδ(β) ligand binding domain (LBD) from a mammalian species including human and/or a non-mammalian species such as frog (Xenopus), is used for screening for compounds that bind to the LBD (Schmidt et al, Mol. Endocrinology, 6:1634-1641, 1992; Evans et al., Sequence XR-4 in U.S. Pat. No. 5,571,696, 1996; Berger et al. J. Biol. Chem., 274:6718-6725, 1999). […]
A single E.coli colony containing His-tagged PPARδ(β) LBD (amino acid 139-441, Schmidt et al., Mol. Endocrinology, 6:1634-1641, 1992) expressing plasmid DNA is mixed with 3 ml Luria broth (LB) supplemented with 100 μg/ml antibiotic ampicilin and grown at 37° C. […] The plates are then read on Packard top-count beta-scintillation counter (1 minute/well). […] In this binding assay any test compound may replace L-165041 and the binding affinity for PPARδ(β) is easily determined.

Gal4/PPARδ(β) = molecular target: T2, Gal4/PPARδ(β) (Homo sapiens, UniProt Q03181); assay: Cell based transactivation assay, δ agonist mode (Gal4 RE driven SEAP reporter in CHO cells); conditions: CHO cells stably transfected with Gal4/PPARδ(β); 3.16-31600 nM; FIG. 4
T2 construct: human PPARδ(β) LBD (amino acid 139-441); {Schmidt et al; expressed in transfected cells; host or cells: CHO cells, stably transfected
T2 sequence (P04386 1-144 partner limits assumed, one chain of several): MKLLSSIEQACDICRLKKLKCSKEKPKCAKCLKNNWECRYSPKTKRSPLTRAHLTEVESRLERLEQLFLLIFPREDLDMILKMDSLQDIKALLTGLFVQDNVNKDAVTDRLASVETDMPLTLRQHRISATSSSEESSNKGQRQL

- IC50 (PPARδ(β) LBD): 52 nM
Structure (SMILES): CCCc1c(OCCCOc2ccc(OCC(=O)O)cc2)ccc(C(C)=O)c1O [Compound L-165041]
- Induction of SEAP reporter gene activity (Gal4/PPARδ(β)): dose dependent activation of reporter gene SEAP function; also recorded: dose dependently induced reporter gene activity
